From ChEMBL document CHEMBL1201862, “PubChem BioAssay data set” (2004)
Blank lines part the entries; values can stand above or below the compound they belong to. Calls of active or inactive are those of the source.

Legend:
[1] = biological target: T1, Tyrosine-protein phosphatase non-receptor type 22 (Homo sapiens, UniProt Q9Y2R2); assay: SAR LYP1 Fluorescent Assay using pCAP substrate for In Vitro dose response studies - Set 2. [Related pubchem assays (depositor defined):AID1779, AID1784, AID2135, AID449727]; format: functional
T1 sequence (Q9Y2R2 whole entry): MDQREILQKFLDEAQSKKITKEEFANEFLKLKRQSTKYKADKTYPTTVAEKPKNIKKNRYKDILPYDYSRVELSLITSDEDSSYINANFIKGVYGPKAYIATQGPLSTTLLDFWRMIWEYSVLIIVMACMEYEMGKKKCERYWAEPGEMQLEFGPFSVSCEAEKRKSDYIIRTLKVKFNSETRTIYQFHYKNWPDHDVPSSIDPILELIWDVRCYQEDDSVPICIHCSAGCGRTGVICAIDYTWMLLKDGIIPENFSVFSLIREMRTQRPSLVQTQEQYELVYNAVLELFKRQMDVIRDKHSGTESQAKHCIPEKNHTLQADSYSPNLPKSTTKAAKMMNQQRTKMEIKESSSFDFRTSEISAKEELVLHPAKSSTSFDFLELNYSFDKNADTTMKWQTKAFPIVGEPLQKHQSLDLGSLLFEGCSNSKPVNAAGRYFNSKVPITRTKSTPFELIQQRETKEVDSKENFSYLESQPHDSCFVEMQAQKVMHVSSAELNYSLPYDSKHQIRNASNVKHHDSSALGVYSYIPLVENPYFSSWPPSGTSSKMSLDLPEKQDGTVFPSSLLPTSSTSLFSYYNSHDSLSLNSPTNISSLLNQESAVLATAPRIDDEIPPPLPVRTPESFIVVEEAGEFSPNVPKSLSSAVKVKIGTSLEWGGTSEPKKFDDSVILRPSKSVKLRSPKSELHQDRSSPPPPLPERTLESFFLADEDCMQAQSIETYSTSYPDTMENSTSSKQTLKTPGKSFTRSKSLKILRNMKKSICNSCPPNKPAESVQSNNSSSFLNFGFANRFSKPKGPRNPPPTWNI

[2] = biological target: T1, Tyrosine-protein phosphatase non-receptor type 22; assay: SAR LYP1 Fluorescent Assay using OMFP substrate for In Vitro dose response studies - Set 3. [Related pubchem assays (depositor defined):AID1779, AID1784, AID2140, AID2686]; format: functional
[3] = biological target: T2, Tyrosine-protein phosphatase non-receptor type 7 (Homo sapiens, UniProt P35236); assay: inhibition of hematopoietic tyrosine phosphatase HePTP – biochemical, set 2, SAR follow-up (AID 449736); format: functional
T2 sequence (P35236 whole entry): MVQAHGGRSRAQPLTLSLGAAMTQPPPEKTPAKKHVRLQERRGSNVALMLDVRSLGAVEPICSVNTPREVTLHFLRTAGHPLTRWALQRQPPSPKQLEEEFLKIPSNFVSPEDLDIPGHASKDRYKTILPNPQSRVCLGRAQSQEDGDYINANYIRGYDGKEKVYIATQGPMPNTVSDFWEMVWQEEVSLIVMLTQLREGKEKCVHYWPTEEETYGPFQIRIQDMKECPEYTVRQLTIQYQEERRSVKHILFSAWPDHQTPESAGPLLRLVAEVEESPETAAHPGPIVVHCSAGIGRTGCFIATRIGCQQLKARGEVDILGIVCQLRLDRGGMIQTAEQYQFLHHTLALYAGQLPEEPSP

[4] = biological target: T1, Tyrosine-protein phosphatase non-receptor type 22; assay: inhibition of lymphoid tyrosine phosphatase LYP – biochemical, pCAP fluorogenic substrate, fluorescence, set 3, SAR follow-up (AID 449727); format: functional
[5] = biological target: T1, Tyrosine-protein phosphatase non-receptor type 22; assay: SAR LYP1 Fluorescent Assay using OMFP substrate for In Vitro dose response studies - Set 2. [Related pubchem assays (depositor defined):AID1779, AID1784, AID2140, AID449726, AID488869]; format: functional
[6] = biological target: T3, Kappa-type opioid receptor (Homo sapiens, UniProt P41145); assay: kappa opioid receptor activation by imaging – image-based, set 3, SAR follow-up (AID 488833); format: functional
T3 sequence (P41145 whole entry): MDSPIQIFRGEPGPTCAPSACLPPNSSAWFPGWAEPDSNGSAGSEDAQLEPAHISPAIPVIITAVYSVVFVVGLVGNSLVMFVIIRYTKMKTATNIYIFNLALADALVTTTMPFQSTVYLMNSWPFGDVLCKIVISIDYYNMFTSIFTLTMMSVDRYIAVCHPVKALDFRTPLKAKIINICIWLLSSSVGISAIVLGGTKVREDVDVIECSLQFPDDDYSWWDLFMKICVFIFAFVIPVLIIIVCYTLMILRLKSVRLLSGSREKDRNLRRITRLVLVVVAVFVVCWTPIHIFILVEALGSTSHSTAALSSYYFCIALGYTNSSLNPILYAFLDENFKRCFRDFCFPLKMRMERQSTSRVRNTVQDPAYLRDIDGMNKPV

[7] = biological target: Mu-type opioid receptor (Homo sapiens, UniProt P35372); assay: SAR Analysis of Agonists of the MOR Receptor using an Image-Based Assay - Set 3. [Related pubchem assays (depositor defined):AID1777, AID1785, AID1786, AID1966, AID2133, AID2136, AID2284, AID2285, AID2352]; format: functional
Sequence of Mu-type opioid receptor (P35372 whole entry): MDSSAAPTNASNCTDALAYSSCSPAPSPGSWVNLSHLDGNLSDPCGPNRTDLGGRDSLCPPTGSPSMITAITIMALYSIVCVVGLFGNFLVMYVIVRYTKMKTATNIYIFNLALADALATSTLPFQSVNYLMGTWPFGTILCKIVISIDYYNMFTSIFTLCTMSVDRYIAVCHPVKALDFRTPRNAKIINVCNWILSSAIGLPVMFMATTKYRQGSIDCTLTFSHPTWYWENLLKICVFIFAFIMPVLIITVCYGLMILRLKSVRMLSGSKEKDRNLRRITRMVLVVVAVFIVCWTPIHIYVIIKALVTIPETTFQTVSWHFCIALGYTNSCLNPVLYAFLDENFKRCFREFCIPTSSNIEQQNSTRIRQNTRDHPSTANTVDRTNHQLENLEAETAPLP

[8] = biological target: Delta-type opioid receptor (Homo sapiens, UniProt P41143); assay: SAR Analysis of Agonists of the DOR Receptor using an Image-Based Assay - Set 3. [Related pubchem assays (depositor defined):AID1777, AID1786]; format: functional
Sequence of Delta-type opioid receptor (P41143 whole entry): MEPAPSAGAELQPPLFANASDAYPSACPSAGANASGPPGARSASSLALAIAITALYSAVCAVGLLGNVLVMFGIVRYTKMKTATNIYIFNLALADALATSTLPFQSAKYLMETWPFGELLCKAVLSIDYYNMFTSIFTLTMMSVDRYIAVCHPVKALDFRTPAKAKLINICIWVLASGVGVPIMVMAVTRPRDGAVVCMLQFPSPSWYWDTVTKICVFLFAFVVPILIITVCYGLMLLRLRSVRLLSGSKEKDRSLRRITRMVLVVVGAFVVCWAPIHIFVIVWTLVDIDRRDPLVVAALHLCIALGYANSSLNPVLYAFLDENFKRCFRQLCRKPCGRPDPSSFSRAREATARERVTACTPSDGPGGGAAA

[9] = biological target: T3, Kappa-type opioid receptor; assay: SAR analysis of small molecule agonists of the kappa opioid receptor via a luminescent beta-arrestin assay - Set 3. [Related pubchem assays (depositor defined):AID1777, AID1785, AID1786, AID1966, AID2133, AID2136, AID2284, AID2500]; format: functional
[10] = Counterscreen for IDE inhibitors: Luminescence-based cell-based high throughput dose response assay to identify compounds that are cytotoxic to HEK cells. [Related pubchem assays: 434962 (Primary screen (IDE inhibitors in singlicate)), 449730 (Counterscreen (Cytotoxicity in triplicate)), 435028 (Confirmation (IDE inhibitors in triplicate)) …; format: functional; conditions: HEK293
[11] = biological target: T4, Insulin-degrading enzyme (Homo sapiens, UniProt P14735); assay: Dose Response: Fluorescence polarization-based cell-based high throughput dose response assay for inhibitors of insulin-degrading enzyme (IDE). [Related pubchem assays: 434962 (Primary screen (IDE inhibitors in singlicate)), 449730 (Counterscreen (Cytotoxicity in triplicate)), 435028 (Confirmation (IDE inhibitors in triplicate)), 434984 (Summary …; format: functional
T4 sequence (P14735 whole entry): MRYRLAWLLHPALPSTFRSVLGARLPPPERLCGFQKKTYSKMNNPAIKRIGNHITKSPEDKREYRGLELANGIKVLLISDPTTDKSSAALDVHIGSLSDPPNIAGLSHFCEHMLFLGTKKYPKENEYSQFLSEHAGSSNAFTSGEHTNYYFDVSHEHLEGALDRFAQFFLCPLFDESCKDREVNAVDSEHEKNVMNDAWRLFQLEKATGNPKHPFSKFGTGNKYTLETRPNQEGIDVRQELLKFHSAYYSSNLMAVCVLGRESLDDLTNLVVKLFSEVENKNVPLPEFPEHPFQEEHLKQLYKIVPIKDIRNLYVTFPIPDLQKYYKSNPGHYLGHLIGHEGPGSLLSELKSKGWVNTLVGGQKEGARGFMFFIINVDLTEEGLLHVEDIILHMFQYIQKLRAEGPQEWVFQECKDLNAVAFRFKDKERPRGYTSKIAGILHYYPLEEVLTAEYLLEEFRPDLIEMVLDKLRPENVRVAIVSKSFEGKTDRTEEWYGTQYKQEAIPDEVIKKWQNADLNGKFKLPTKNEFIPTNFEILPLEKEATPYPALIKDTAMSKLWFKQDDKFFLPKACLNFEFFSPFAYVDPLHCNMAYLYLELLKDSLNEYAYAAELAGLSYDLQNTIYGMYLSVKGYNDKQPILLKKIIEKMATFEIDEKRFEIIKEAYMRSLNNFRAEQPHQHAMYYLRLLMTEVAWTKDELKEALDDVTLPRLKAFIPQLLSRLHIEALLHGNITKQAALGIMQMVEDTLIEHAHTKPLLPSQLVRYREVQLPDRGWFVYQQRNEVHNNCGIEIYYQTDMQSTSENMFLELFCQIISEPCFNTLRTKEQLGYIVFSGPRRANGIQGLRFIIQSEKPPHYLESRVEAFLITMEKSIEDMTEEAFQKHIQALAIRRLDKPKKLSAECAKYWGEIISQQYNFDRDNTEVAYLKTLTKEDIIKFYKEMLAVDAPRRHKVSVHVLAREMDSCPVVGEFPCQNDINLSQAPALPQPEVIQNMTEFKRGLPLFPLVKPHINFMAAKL

[12] = biological target: Intestinal-type alkaline phosphatase (Mus musculus, UniProt P24822); assay: PubChem AID 488785; format: functional
Sequence of Intestinal-type alkaline phosphatase (Mus musculus, UniProt P24822) (P24822 whole entry): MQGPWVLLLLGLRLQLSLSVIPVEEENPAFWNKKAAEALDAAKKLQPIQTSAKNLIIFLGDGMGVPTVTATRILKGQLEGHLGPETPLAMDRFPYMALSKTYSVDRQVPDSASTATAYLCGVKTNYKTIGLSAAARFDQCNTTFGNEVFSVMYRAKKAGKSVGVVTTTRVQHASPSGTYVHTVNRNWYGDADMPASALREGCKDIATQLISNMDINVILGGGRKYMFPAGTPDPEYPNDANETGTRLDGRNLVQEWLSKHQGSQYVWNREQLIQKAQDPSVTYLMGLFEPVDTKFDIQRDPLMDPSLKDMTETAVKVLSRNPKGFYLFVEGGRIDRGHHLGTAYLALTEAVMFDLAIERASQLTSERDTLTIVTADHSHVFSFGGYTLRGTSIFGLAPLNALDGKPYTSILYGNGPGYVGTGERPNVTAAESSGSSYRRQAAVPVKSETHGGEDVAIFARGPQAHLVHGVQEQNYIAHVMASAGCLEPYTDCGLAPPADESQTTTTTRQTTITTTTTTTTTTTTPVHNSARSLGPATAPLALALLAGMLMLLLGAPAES

[13] = biological target: T5, Alkaline phosphatase, tissue-nonspecific isozyme (Homo sapiens, UniProt P05186); assay: TNAP enzyme inhibition by screening hits, dose response, selectivity assay for mouse IAP inhibitor project, biochemical, human TNAP, uHTS hits (AID 488906); format: functional
T5 sequence (P05186 whole entry): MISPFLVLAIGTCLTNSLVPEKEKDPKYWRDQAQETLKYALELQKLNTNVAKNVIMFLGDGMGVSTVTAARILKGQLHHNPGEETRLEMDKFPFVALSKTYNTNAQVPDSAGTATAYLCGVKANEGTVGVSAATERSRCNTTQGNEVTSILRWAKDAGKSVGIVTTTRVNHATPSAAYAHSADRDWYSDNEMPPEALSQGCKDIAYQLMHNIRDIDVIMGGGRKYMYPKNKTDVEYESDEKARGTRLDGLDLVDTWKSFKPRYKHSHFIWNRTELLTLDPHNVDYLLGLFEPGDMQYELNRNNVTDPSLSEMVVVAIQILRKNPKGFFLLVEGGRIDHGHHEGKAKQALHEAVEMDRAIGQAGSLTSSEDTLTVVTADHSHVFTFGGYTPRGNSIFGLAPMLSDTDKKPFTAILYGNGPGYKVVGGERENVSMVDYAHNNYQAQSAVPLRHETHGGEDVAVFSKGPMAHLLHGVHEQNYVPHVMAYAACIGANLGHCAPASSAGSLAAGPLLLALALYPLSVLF

[14] = biological target: Intestinal-type alkaline phosphatase (Homo sapiens, UniProt P09923); assay: inhibition of human intestinal alkaline phosphatase – biochemical, dose response (AID 488876); format: functional
Sequence of Intestinal-type alkaline phosphatase (Homo sapiens, UniProt P09923) (P09923 whole entry): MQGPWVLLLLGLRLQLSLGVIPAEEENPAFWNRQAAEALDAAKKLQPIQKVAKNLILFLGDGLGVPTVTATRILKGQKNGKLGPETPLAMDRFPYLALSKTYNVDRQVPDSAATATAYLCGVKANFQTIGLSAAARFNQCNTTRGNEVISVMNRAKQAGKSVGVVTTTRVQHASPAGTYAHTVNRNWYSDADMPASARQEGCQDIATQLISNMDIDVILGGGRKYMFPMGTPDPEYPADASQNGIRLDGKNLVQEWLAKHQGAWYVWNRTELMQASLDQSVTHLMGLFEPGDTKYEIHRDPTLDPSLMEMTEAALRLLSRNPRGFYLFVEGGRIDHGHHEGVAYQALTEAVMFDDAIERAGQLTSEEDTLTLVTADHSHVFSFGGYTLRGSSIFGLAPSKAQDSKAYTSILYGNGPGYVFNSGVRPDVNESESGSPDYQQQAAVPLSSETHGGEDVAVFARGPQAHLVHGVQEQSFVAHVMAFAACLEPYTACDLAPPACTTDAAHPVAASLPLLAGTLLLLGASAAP

[15] = biological target: Dual specificity tyrosine-phosphorylation-regulated kinase 1A (Rattus norvegicus, UniProt Q63470); format: biochemical, Homo sapiens

- IC50 [1]: 55 µM (active)
- IC50 [2]: > 100 µM (inactive)
- IC50 [3]: > 100 µM (inactive)
- IC50 [4]: 44.8 µM (active)
- IC50 [5]: > 100 µM (inactive)
Compound: NC1=NC(=O)/C(=C/c2ccc(OCC(=O)O)cc2)S1

- EC50 [6]: 12.2 µM (inactive)
- EC50 [7]: > 32 µM (inactive)
- EC50 [8]: > 64 µM (inactive)
- EC50 [9]: 8.21 µM (active)
Compound: Cc1c(CSc2nnc(-c3ccccn3)n2Cc2ccco2)cccc1[N+](=O)[O-]

Compound: COc1cc(/C=N/N2C(=O)CSC2=S)ccc1O
- IC50 [10]: > 55.7 µM (not active)
- IC50 [11]: > 6.22 µM (active)
- IC50 [12]: 2.2 µM (active)
- IC50 [13]: > 100 µM (inactive)
- IC50 [14]: 21.3 µM (active)
- AC50 [15]: 9.55 µM (active)
